Results from patent US20250230165A1, “HETEROCYCLIC COMPOUNDS FOR USE IN THE TREATMENT OF CANCER” (ARTIOS PHARMA LIMITED, priority 2021, published 2025).

Target: T1, Human Polθ polymerase domain (aa1820-2590) (Homo sapiens, UniProt O75417)
T1 construct: Human Polθ polymerase domain (aa1820-2590) was expressed in E. coli; made in house; host or cells: E. coli
T1 sequence (O75417 1820-2590): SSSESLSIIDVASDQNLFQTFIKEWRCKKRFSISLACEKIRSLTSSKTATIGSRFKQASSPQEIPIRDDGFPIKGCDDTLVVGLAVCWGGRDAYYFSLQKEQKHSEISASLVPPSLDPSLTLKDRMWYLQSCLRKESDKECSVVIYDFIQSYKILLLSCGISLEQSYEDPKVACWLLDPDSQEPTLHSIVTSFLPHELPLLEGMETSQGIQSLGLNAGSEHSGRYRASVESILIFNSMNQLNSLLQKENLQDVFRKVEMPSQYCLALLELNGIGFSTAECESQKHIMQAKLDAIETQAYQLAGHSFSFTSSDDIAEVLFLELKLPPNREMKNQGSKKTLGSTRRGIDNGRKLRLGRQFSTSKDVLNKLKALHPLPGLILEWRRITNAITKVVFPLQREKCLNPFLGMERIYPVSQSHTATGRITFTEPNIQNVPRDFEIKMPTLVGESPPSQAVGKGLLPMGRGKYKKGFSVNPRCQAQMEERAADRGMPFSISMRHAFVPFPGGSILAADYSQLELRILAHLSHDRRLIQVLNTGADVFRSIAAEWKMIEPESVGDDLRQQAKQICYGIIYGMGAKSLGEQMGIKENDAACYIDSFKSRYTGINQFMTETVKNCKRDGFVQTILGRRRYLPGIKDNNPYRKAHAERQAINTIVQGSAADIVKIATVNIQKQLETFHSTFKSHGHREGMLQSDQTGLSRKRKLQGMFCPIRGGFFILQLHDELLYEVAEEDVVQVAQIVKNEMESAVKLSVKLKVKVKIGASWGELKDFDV
Assay: Polθ Polymerase Domain Kinact/KI Assay (PicoGreen)
Type: biochemical
Conditions: 0.8 nM Polθ, 100 nM DNA substrate, kobs vs [I] fit for 2-step covalent inhibitor
Summary of the method: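 PicoGreen fluorescence read-out of primer extension; progress curves per inhibitor concentration fitted for kobs, then kobs vs [I] fitted to a two-step covalent model to give Kinact and KI. Conditions: 0.8 nM enzyme, 100 nM DNA substrate, […].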

| SMILES | Kinact/Kl [M⁻¹ s⁻¹] |
| --- | --- |
| C=CC(=O)N1C[C@H]2CCN(CCN3C[C@H]4CC(=O)N(c5cc(C(F)(F)F)cc(C)n5)[C@@H]4C(=O)N(C)c4cccc(F)c43)C[C@H]2C1 (relative stereo) [Example 25a, (3aR,11aS)-5-(2-((3aS/R,7aS/R)-2-acryloyloctahydro-5H-pyrrolo[3,4-c]pyridin-5-yl)ethyl)-6-fluoro-10-methyl-1-(6-methyl-4-(trifluoromethyl)pyridin-2-yl)-1,3a,4,5,10,11a-hexahydro-2H-benzo[b]pyrrolo[2,3-f][1,4]diazocine-2, 11(3H)-dione] | 200000 |
| C=CC(=O)N1CCN(CCCN2C[C@H]3CC(=O)N(c4cc(C(F)(F)F)cc(C)n4)[C@@H]3C(=O)N(C)c3cccc(C)c32)CC1C(F)(F)F (mixture of isomers) [Example 265a, (3aR,11aS)-5-(3-((S/R)-4-acryloyl-3-(trifluoromethyl)piperazin-1-yl)propyl)-6,10-dimethyl-1-(6-methyl-4-(trifluoromethyl)pyridin-2-yl)-1,3a,4,5,10,11a-hexahydro-2H-benzo[b]pyrrolo[2,3-f][1,4]diazocine-2,11(3H)-dione] | 3.32e+06 |
| C=CC(=O)N1CCN2CCN(CCN3C[C@H]4CC(=O)N(c5cc(C(F)(F)F)cc(C)n5)[C@@H]4C(=O)N(C)c4cccc(Cl)c43)CC2C1 (stereo partly drawn) [Example 14, (3aR,11aS)-5-(2-(8-acryloyloctahydro-2H-pyrazino[1,2-a]pyrazin-2-yl)ethyl)-6-chloro-10-methyl-1-(6-methyl-4-(trifluoromethyl)pyridin-2-yl)-1,3a,4,5,10,11a-hexahydro-2H-benzo[b]pyrrolo[2,3-f][1,4]diazocine-2,11(3H)-dione] | 2.05e+06 |
| C=CC(=O)N1Cc2cc(CN3C[C@H]4CC(=O)N(c5cc(C(F)(F)F)cc(C)n5)[C@@H]4C(=O)N(C)c4cccc(C)c43)cnc2[C@@H]1CC#N (racemic) [Example 321a, 2-((S/R)-6-acryloyl-3-(((3aR,11aS)-6,10-dimethyl-1-(6-meth-yl-4-(trifluorometh-yl)pyridin-2-yl)-2,11-dioxo-1,2,3,3a, 4,10,11,11a-octa-hydro-5H-benzo[b]pyrrolo[2,3-f][1,4]diazocin-5-yl)meth-yl)-6,7-dihydro-5H-pyrrolo[3,4-b]pyr-idin-7-yl)acetonitrile] | 1.57e+06 |
| C=CC(=O)N1Cc2ccc(CN3C[C@H]4CC(=O)N(c5cc(C(F)(F)F)cc(C)n5)[C@@H]4C(=O)N(C)c4cccc(Cl)c43)nc2[C@@H]1CC#N (racemic) [Example 289b, 2-((S/R)-6-acryloyl-2-(((3aR,11aS)-6-chloro-10-methyl-1-(6-methyl-4-(trifluoromethyl)pyridin-2-yl)-2,11-dioxo-1,2,3,3a,4,10,11,11a-octahydro-5H-benzo[b]pyrrolo[2,3-f][1,4]diazocin-5-yl)methyl)-6,7-dihydro-5H-pyrrolo[3,4-b]pyridin-7-yl)acetonitrile] | 1.24e+06 |
| C=CC(=O)N1Cc2nc(CN3C[C@H]4CC(=O)N(c5cc(C(F)(F)F)cc(C)n5)[C@@H]4C(=O)N(C)c4cccc(Cl)c43)ccc2C1CC#N (single isomer, unassigned) [Example 290b] | 1.3e+06 |
| Cc1cc(C(F)(F)F)cc(N2C(=O)C[C@@H]3CN(C[C@H]4C[C@H](NC(=O)/C=C/CN(C)C)C4)c4c(C)cccc4N(C)C(=O)[C@H]32)n1 [Example 331, (E)-N-((1R,3r)-3-(((3aR,11aS)-6,10-dimethyl-1-(6-meth-yl-4-(trifluorometh-yl)pyridin-2-yl)-2,11-dioxo-1,2,3,3a, 4,10,11,11a-octa-hydro-5H-benzo[b]pyrrolo[2,3-f][1,4]diazocin-5-yl)meth-yl)cyclobutyl)-4-(dimethylamino)but-2-enamide] | 1.85e+06 |
| Cc1cc(C(F)(F)F)cc(N2C(=O)C[C@@H]3CN(Cc4ccc5c(c4)N(C(=O)/C=C/CN(C)C)CCO5)c4c(Cl)cccc4N(C)C(=O)[C@H]32)n1 [Example 251, (3aR,11aS)-6-chloro-5-((4-((E)-4-(dimethylamino)but-2-enoyl)-3,4-dihydro-2H-benzo[b][1,4]oxazin-6-yl)methyl)-10-methyl-1-(6-methyl-4-(trifluoromethyl)pyridin-2-yl)-1,3a,4,5,10,11a-hexahydro-2H-benzo[b]pyrrolo[2,3-f][1,4]diazocine-2,11(3H)-dione] | 370000 |
| C=CC(=O)N1CC(n2cnc(CN3C[C@H]4CC(=O)N(c5cc(C(F)(F)F)cc(C)n5)[C@@H]4C(=O)N(C)c4cccc(Cl)c43)n2)C1 [Example 42, (3aR,11aS)-5-((1-(1-acryloylazetidin-3-yl)-1H-1,2,4-triazol-3-yl)methyl)-6-chloro-10-methyl-1-(6-methyl-4-(trifluoromethyl)pyridin-2-yl)-1,3a,4,5,10,11a-hexahydro-2H-benzo[b]pyrrolo[2,3-f][1,4]diazocine-2,11(3H)-dione] | 790000 |
| C=CC(=O)N1CC2(CN(CCN3C[C@H]4CC(=O)N(c5cc(C(F)(F)F)cc(C)n5)[C@@H]4C(=O)N(C)c4cccc(Cl)c43)CC(=O)N2C)C1 [Example 111, (3aR,11aS)-5-(2-(2-acryloyl-5-methyl-6-oxo-2,5,8-triazaspiro[3.5]nonan-8-yl)ethyl)-6-chloro-10-methyl-1-(6-methyl-4-(trifluoromethyl)pyridin-2-yl)-1,3a,4,5,10,11a-hexahydro-2H-benzo[b]pyrrolo[2,3-f][1,4]diazocine-2,11(3H)-dione] | 2.49e+06 |
| Cc1cc(C(F)(F)F)cc(N2C(=O)C[C@@H]3CN(CCCOC4CN(C(=O)/C=C/CN(C)C)C4)c4c(Cl)cccc4N(C)C(=O)[C@H]32)n1 [Example 44, (3aR,11aS)-6-chloro-5-(3-((1-((E)-4-(dimethylamino)but-2-enoyl)azetidin-3-yl)oxy)propyl)-10-methyl-1-(6-methyl-4-(trifluoromethyl)pyridin-2-yl)-1,3a,4,5,10,11a-hexahydro-2H-benzo[b]pyrrolo[2,3-f][1,4]diazocine-2,11(3H)-dione] | 2.22e+06 |
| C=CC(=O)N1CC2CN(CCN3C[C@H]4CC(=O)N(c5cc(C(F)(F)F)cc(C)n5)[C@@H]4C(=O)N(C)c4cccc(F)c43)CCN2C[C@@H]1C (single isomer, unassigned) [Example 10] | 210000 |
| Cc1cc(C(F)(F)F)cc(N2C(=O)C[C@@H]3CN(Cc4cccc(C5CN(C(=O)/C=C/CN(C)C)C5)c4)c4c(F)cccc4N(C)C(=O)[C@H]32)n1 [Example 147, (3aR,11aS)-5-(3-(1-((E)-4-(dimethylamino)but-2-enoyl)azetidin-3-yl)benzyl)-6-fluoro-10-methyl-1-(6-methyl-4-(trifluoromethyl)pyridin-2-yl)-1,3a,4,5,10,11a-hexahydro-2H-benzo[b]pyrrolo[2,3-f][1,4]diazocine-2,11(3H)-dione] | 610000 |
| C=CC(=O)N1CCN2CCN(C(=O)CN3C[C@H]4CC(=O)N(c5cc(C(F)(F)F)cc(C)n5)[C@@H]4C(=O)N(C)c4cccc(F)c43)CC2C1 (mixture of isomers) [Example 76b, (3aR,11aS)-5-(2-((S/R)-8-acryloyloctahydro-2H-pyrazino[1,2-a]pyrazin-2-yl)-2-oxoethyl)-6-fluoro-10-methyl-1-(6-methyl-4-(trifluoromethyl)pyridin-2-yl)-1,3a,4,5,10,11a-hexahydro-2H-benzo[b]pyrrolo[2,3-f][1,4]diazocine-2,11(3H)-dione] | 940000 |
